pIC50: −log10 of the molar value.
Target: MAPK14 (human) (UniProt Q16539)
Assay: Inhibition of MAPK14 Kinase Activity by PHAS-I Assay
Details: for inhibition: concentration not given here

MAPK14 (human), sequence (Q16539 whole entry, looked up): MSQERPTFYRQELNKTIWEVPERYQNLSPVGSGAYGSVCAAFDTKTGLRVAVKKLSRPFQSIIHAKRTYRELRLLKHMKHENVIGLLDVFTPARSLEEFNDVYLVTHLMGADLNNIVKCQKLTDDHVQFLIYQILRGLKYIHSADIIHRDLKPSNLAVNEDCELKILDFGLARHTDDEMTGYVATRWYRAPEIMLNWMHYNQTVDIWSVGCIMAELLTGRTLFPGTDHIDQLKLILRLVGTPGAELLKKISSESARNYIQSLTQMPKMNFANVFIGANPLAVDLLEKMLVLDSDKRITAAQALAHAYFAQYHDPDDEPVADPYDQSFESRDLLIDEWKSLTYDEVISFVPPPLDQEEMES

| inhibition [%] | pIC50 | SMILES |
| --- | --- | --- |
| 77 | – | O=S(=O)(NCc1[nH]nc(-c2ccc(F)cc2)c1-c1ccncc1)c1cc(Br)c(Br)s1 |
| 78 | – | Cc1c(-c2ccncc2)c(-c2ccc(F)cc2)nn1CC(=O)N1CCSC1c1ccco1 (stereo not given) |
| 82 | – | O=C(NCCCc1[nH]nc(-c2ccc(F)cc2)c1-c1ccncc1)N1CCOCC1 |
| – | 5.66 | CCN(CC)C(=O)N[C@@H](Cc1ccccc1)c1[nH]nc(-c2ccc(F)cc2)c1-c1ccncc1 |
| 49 | – | Cc1c(-c2ccncc2)c(-c2ccc(F)cc2)nn1CC(=O)NC1CCCCC1 |
| 86 | – | C=CCOC(=O)NCCc1[nH]nc(-c2ccc(F)cc2)c1-c1ccncc1 |
| 80 | – | CCCCCCOc1ccc(NC(=O)Cn2nc(-c3ccc(F)cc3)c(-c3ccncc3)c2C)cc1 |
| 43 | – | Cc1c(-c2ccncc2)c(-c2ccc(F)cc2)nn1CC(=O)N(CCc1ccccc1)CCc1ccccn1 |
| 75 | – | Cc1c(-c2ccncc2)c(-c2ccc(F)cc2)nn1CC(=O)Nc1cc(F)cc(F)c1 |
| 76 | – | Cc1c(-c2ccncc2)c(-c2ccc(F)cc2)nn1CC(=O)NC1CCSc2ccccc21 (stereo not given) |
| 72 | – | COc1ccc(CCN(CCC#N)C(=O)Cn2nc(-c3ccc(F)cc3)c(-c3ccncc3)c2C)cc1OC |
| 56 | – | Cc1cccc(C)c1NC(=O)NCCc1[nH]nc(-c2ccc(F)cc2)c1-c1ccncc1 |
| 95 | – | CCS(=O)(=O)NCCCc1[nH]nc(-c2ccc(F)cc2)c1-c1ccncc1 |
| 82 | – | Cc1c(-c2ccncc2)c(-c2ccc(F)cc2)nn1CC(=O)NC1CCCCCC1 |
| 75 | – | Cc1c(-c2ccncc2)c(-c2ccc(F)cc2)nn1CC(=O)NC1CC1 |
| 69 | – | Cc1c(-c2ccncc2)c(-c2ccc(F)cc2)nn1CC(=O)NC1CCSC1=O (stereo not given) |
| 48 | – | Cc1c(-c2ccncc2)c(-c2ccc(F)cc2)nn1CC(=O)N(Cc1ccco1)CC(C)C |
| – | 4.92 | CCCc1n[nH]c(-c2cccc([N+](=O)[O-])c2)c1-c1ccncc1 |
| 35 | – | Cc1c(-c2ccncc2)c(-c2ccc(F)cc2)nn1CC(=O)NC(C)CCc1ccccc1 (stereo not given) |
| 73 | – | Cc1c(-c2ccncc2)c(-c2ccc(F)cc2)nn1CC(=O)N(C)Cc1ccccc1 |
| 87 | – | C=CCNC(=O)NCCCc1[nH]nc(-c2ccc(F)cc2)c1-c1ccncc1 |
| 86 | – | Cc1c(-c2ccncc2)c(-c2ccc(F)cc2)nn1CC(=O)NCC(=O)Nc1ccccc1 |
| 80 | – | O=C(NCCCc1[nH]nc(-c2ccc(F)cc2)c1-c1ccncc1)c1ccc(F)c(F)c1F |
| 73 | – | O=S(=O)(NCc1[nH]nc(-c2ccc(F)cc2)c1-c1ccncc1)c1cccc2cccnc12 |
| 86 | – | COc1ccc2nc(NC(=O)Cn3nc(-c4ccc(F)cc4)c(-c4ccncc4)c3C)sc2c1 |
| 63 | – | COCCN(CC1CCCCC1)C(=O)Cn1nc(-c2ccc(F)cc2)c(-c2ccncc2)c1C |
| – | 7.77 | N#CCNc1[nH]nc(-c2ccc(F)cc2)c1-c1ccncc1 |
| 86 | – | Cc1c(-c2ccncc2)c(-c2ccc(F)cc2)nn1CC(=O)Nc1ccccc1C(F)(F)F |
| 87 | – | Cc1c(-c2ccncc2)c(-c2ccc(F)cc2)nn1CC(=O)Nc1ccc(-n2ccc(C(F)(F)F)n2)cc1 |
| 90 | – | CN(C)C(=O)NCCCc1[nH]nc(-c2ccc(F)cc2)c1-c1ccncc1 |

Continued, molecule first:

| SMILES | inhibition [%] | pIC50 |
| --- | --- | --- |
| COc1ccc(NC(=O)NCCc2[nH]nc(-c3ccc(F)cc3)c2-c2ccncc2)c(OC)c1 | 49 | – |
| COCC(C)NC(=O)Cn1nc(-c2ccc(F)cc2)c(-c2ccncc2)c1C (stereo not given) | 60 | – |
| CC(=O)Nc1ccc(S(=O)(=O)NCc2[nH]nc(-c3ccc(F)cc3)c2-c2ccncc2)cc1 | 66 | – |
| O=C(NCCCc1[nH]nc(-c2ccc(F)cc2)c1-c1ccncc1)Nc1ccc(F)cc1 | 88 | – |
| CCOC(=O)N1CCC(Nc2n[nH]c(-c3ccc(Cl)cc3)c2-c2ccncc2)CC1 | – | < 4.00 |
| O=C(NCCCc1[nH]nc(-c2ccc(F)cc2)c1-c1ccncc1)c1ccno1 | 80 | – |
| Cc1c(-c2ccncc2)c(-c2ccc(F)cc2)nn1CC(=O)Nc1cccc(F)c1 | 92 | – |
| Clc1ccc(-c2n[nH]c(N3CCSCC3)c2-c2ccncc2)cc1 | – | 6.11 |
| CCCC(CCC)NC(=O)Cn1nc(-c2ccc(F)cc2)c(-c2ccncc2)c1C | 77 | – |
| Cc1c(-c2ccncc2)c(-c2ccc(F)cc2)nn1CC(=O)Nc1ccccc1 | 85 | – |
| Cc1c(-c2ccncc2)c(-c2ccc(F)cc2)nn1CC(=O)NCC(=O)OC(C)(C)C | 34 | – |
| COC(=O)C(NC(=O)Cn1nc(-c2ccc(F)cc2)c(-c2ccncc2)c1C)C(C)C (stereo not given) | 82 | – |
| COc1ccc(S(=O)(=O)NCCCc2[nH]nc(-c3ccc(F)cc3)c2-c2ccncc2)cc1OC | 74 | – |
| Cc1c(-c2ccncc2)c(-c2ccc(F)cc2)nn1CC(=O)Nc1c(Cl)cccc1Cl | 89 | – |
| COc1ccc(S(=O)(=O)NCCCc2[nH]nc(-c3ccc(F)cc3)c2-c2ccncc2)cc1 | 71 | – |
| Cc1c(-c2ccncc2)c(-c2ccc(F)cc2)nn1CC(=O)Nc1ccccc1C(C)C | 94 | – |
| COC(=O)[C@@H](Cc1cn(C)cn1)NC(=O)Cn1nc(-c2ccc(F)cc2)c(-c2ccncc2)c1C | 19 | – |
| CN(C(=O)NCCCc1[nH]nc(-c2ccc(F)cc2)c1-c1ccncc1)c1ccccc1 | 76 | – |
| Cc1ccc(C(=O)NCCCc2[nH]nc(-c3ccc(F)cc3)c2-c2ccncc2)cc1 | 86 | – |
| O=C(Nc1ccccc1)N[C@@H](Cc1ccccc1)c1[nH]nc(-c2ccc(F)cc2)c1-c1ccncc1 | – | 5.59 |
| CC(C)COC(=O)NCCCc1[nH]nc(-c2ccc(F)cc2)c1-c1ccncc1 | 76 | – |
| CCCN(CCC)CC(C)NC(=O)Cn1nc(-c2ccc(F)cc2)c(-c2ccncc2)c1C (stereo not given) | 17 | – |

| SMILES | inhibition [%] | pIC50 |
| --- | --- | --- |
| Cc1c(-c2ccncc2)c(-c2ccc(F)cc2)nn1CC(=O)N(C)CCc1ccncc1 | 38 | – |
| O=C(NCCCc1[nH]nc(-c2ccc(F)cc2)c1-c1ccncc1)Nc1ccccc1 | 81 | – |
| CCCNC(=O)NCCCc1[nH]nc(-c2ccc(F)cc2)c1-c1ccncc1 | 88 | – |
| CNCCCNC(=O)CSc1[nH]nc(-c2ccc(Cl)cc2)c1-c1ccncc1 | – | 5.78 |
| CCN1CC(NC(=O)Cn2nc(-c3ccc(F)cc3)c(-c3ccncc3)c2C)CN1CC | 47 | – |
| CC(=O)OC(C)(C)C(=O)NCCCc1[nH]nc(-c2ccc(F)cc2)c1-c1ccncc1 | 74 | – |
| Cc1c(-c2ccncc2)c(-c2ccc(F)cc2)nn1CC(=O)N(C)CC(N)=O | 60 | – |
| O=C(NCCCc1[nH]nc(-c2ccc(F)cc2)c1-c1ccncc1)c1ccncc1 | 77 | – |
| CCCOC(=O)NCCCc1[nH]nc(-c2ccc(F)cc2)c1-c1ccncc1 | 90 | – |
| Cc1c(-c2ccncc2)c(-c2ccc(F)cc2)nn1CC(=O)NC(Cc1ccccc1)c1ccccc1 (stereo not given) | 44 | – |
| Clc1ccc(-c2n[nH]c(SCOC3CCCCO3)c2-c2ccncc2)cc1 (stereo not given) | – | 6.96 |
| O=C(NCc1[nH]nc(-c2ccc(F)cc2)c1-c1ccncc1)c1cc(Cl)cc(Cl)c1 | – | 5.57 |
| CCN(CC)CCN(CCN(CC)CC)C(=O)Cn1nc(-c2ccc(F)cc2)c(-c2ccncc2)c1C | 47 | – |
| CC(C)C(=O)NCCc1[nH]nc(-c2ccc(F)cc2)c1-c1ccncc1 | 75 | – |
| Cc1c(-c2ccncc2)c(-c2ccc(F)cc2)nn1CC(=O)Nc1cc([N+](=O)[O-])cc([N+](=O)[O-])c1 | 90 | – |
| COc1ccccc1C(=O)NCCCc1[nH]nc(-c2ccc(F)cc2)c1-c1ccncc1 | 68 | – |
| O=S(=O)(NCCCc1[nH]nc(-c2ccc(F)cc2)c1-c1ccncc1)c1ccccc1F | 77 | – |
| Cc1c(-c2ccncc2)c(-c2ccc(F)cc2)nn1CC(=O)Nc1ccc(C2CCCCC2)cc1 | 87 | – |
| Cc1c(-c2ccncc2)c(-c2ccc(F)cc2)nn1CC(=O)Nc1ccccc1F | 86 | – |
| CCc1cccc(CC)c1NC(=O)Cn1nc(-c2ccc(F)cc2)c(-c2ccncc2)c1C | 70 | – |
| CC(C)OC(=O)NCCCc1[nH]nc(-c2ccc(F)cc2)c1-c1ccncc1 | 89 | – |
| Cc1c(-c2ccncc2)c(-c2ccc(F)cc2)nn1CC(=O)Nc1cccc(Br)c1 | 88 | – |

| SMILES | inhibition [%] | pIC50 |
| --- | --- | --- |
| Cc1c(-c2ccncc2)c(-c2ccc(F)cc2)nn1CC(=O)Nc1cc(C(F)(F)F)cc(C(F)(F)F)c1 | 79 | – |
| Cc1c(-c2ccncc2)c(-c2ccc(F)cc2)nn1CC(=O)NC1CCC1 | 81 | – |
| O=C(Nc1ccccc1F)N[C@H](Cc1ccccc1)c1[nH]nc(-c2ccc(F)cc2)c1-c1ccncc1 | – | 4.68 |
| CC(C)NC(=O)NCCCc1[nH]nc(-c2ccc(F)cc2)c1-c1ccncc1 | 81 | – |
| Cc1c(-c2ccncc2)c(-c2ccc(F)cc2)nn1CC(=O)Nc1ccccc1Cl | 90 | – |
| O=C(NCCCc1[nH]nc(-c2ccc(F)cc2)c1-c1ccncc1)C1CC1 | 77 | – |
| O=S(=O)(NCc1[nH]nc(-c2ccc(F)cc2)c1-c1ccncc1)c1ccc2ccccc2c1 | – | 6.55 |
| CS(=O)(=O)NCCCc1[nH]nc(-c2ccc(F)cc2)c1-c1ccncc1 | 84 | – |
| COC(=O)C(Cc1ccc([N+](=O)[O-])cc1)NC(=O)Cn1nc(-c2ccc(F)cc2)c(-c2ccncc2)c1C (stereo not given) | 75 | – |
| COc1ccc(NC(=O)NCCCc2[nH]nc(-c3ccc(F)cc3)c2-c2ccncc2)cc1 | 82 | – |
| Cc1c(-c2ccncc2)c(-c2ccc(F)cc2)nn1CC(=O)Nc1ccccc1C(=O)OC(C)C | 88 | – |
| Cc1c(-c2ccncc2)c(-c2ccc(F)cc2)nn1CC(=O)Nc1ccccc1Cc1ccccc1 | 92 | – |
| CNC(=O)NCCCc1[nH]nc(-c2ccc(F)cc2)c1-c1ccncc1 | 84 | – |
| Cc1c(-c2ccncc2)c(-c2ccc(F)cc2)nn1CC(=O)N1CCSC1 | 63 | – |
| O=S(=O)(Cc1ccccc1)NCCCc1[nH]nc(-c2ccc(F)cc2)c1-c1ccncc1 | 87 | – |
| O=C(NCCCc1[nH]nc(-c2ccc(F)cc2)c1-c1ccncc1)c1cnc2ccccc2n1 | 68 | – |
| CCOC(=O)CN(Cc1ccccn1)C(=O)Cn1nc(-c2ccc(F)cc2)c(-c2ccncc2)c1C | 34 | – |
| CCCS(=O)(=O)NCCCc1[nH]nc(-c2ccc(F)cc2)c1-c1ccncc1 | 92 | – |
| Cc1c(-c2ccncc2)c(-c2ccc(F)cc2)nn1CC(=O)NC1Cc2ccccc2C1 | 69 | – |
| O=C(NCCCc1[nH]nc(-c2ccc(F)cc2)c1-c1ccncc1)NCCc1ccccc1 | 82 | – |
| Cc1c(-c2ccncc2)c(-c2ccc(F)cc2)nn1CC(=O)NC1CCN(Cc2ccccc2)CC1 | 70 | – |

— the Kinase Knowledgebase extract (Sharma et al. 2016)
